In this assay the target is hTREM2 (Homo sapiens, UniProt Q9NZC2). Kind of assay: Phospho-Syk AlphaScreen/AlphaLISA assay in TREM2 and DAP12 overexpressing HEK293 cells (Example A1). The assay is classed as cell-based. Details: expressed in transfected cells. Conditions: HEK293 cells; for EC50: read-out: hTREM2 EC50. The method in brief:
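Agonism read as Syk phosphorylation: compounds in 1% DMSO applied 45 min at room temperature to TREM2/DAP12-HEK293 cells after 20 h culture. Lysis buffer with phosphatase inhibitors and anti-phospho-Syk plus biotinylated anti-Syk antibodies, then AlphaLISA beads (680 nm excitation); percent of control computed from antibody/isotype wells, curves fitted sigmoidally.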

Structures are written as SMILES.

This is an account of results in US20250388574A1, “HETEROCYCLIC COMPOUNDS AS TRIGGERING RECEPTOR EXPRESSED ON MYELOID CELLS 2 AGONISTS AND METHODS OF USE” (AMGEN INC., priority 2020, published 2025).

As usually defined, the EC50 is the concentration that produces a half-maximal response.

Chain of hTREM2 (Q9NZC2 19-230): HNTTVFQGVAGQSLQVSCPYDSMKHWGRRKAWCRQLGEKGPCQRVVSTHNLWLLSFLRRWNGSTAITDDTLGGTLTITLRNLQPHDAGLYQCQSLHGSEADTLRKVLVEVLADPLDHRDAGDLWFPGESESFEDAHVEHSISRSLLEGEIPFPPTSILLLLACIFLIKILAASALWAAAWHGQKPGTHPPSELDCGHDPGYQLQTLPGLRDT
Chain of hTREM2 (O43914 22-113 partner): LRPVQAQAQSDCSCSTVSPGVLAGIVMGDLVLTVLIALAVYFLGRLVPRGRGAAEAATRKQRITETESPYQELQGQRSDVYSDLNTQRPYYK

For the compound `Cc1nc2cc(N3C[C@@H](C)O[C@@H](c4cnn(C)c4)C3)nc(-c3ccc(Cl)cc3F)c2c(=O)n1C` (single isomer, unassigned) [Example 28], the Emax entry is “+++ (Emax>200 and ≤300)”; the EC50 was less than 50 nM.
On to `Cc1nc2cc(N3CCC(F)(F)[C@H](c4cnn(C)c4)C3)nc(-c3ccc(Cl)cc3F)c2c(=O)n1C` (single isomer, unassigned) [Example 117], for which the Emax result was “+++ (Emax>200 and ≤300)”; the EC50 was less than 50 nM.
On to `Cc1nc2cc(N3CCO[C@@H]([C@@H]4CCO4)C3)nc(-c3ccc(Cl)cc3F)c2c(=O)n1C` (single isomer, unassigned) [Example 39], for which the Emax result is “+++ (Emax>200 and ≤300)”; the EC50 lay in the range of 500 to 3000 nM.
As to `Cc1nc2cc(N3CCO[C@@H](c4cnn(C(F)CO)c4)C3)nc(-c3ccc(Cl)cc3F)c2c(=O)n1C` (stereo partly drawn) [Example 130, 5-(4-chloro-2-fluorophenyl)-7-((2S)-2-(1-(1-fluoro-2-hydroxyethyl)-1H-pyrazol-4-yl)-4-morpholinyl)-2,3-dimethylpyrido[4,3-d]pyrimidin-4(3H)-one], the EC50 is 50 to 500 nM.
Turning to `Cc1nnc([C@@H]2CN(c3cc4nc(C)n(C)c(=O)c4c(-c4ccc(Cl)cc4F)n3)CCO2)o1` (single isomer, unassigned) [Example 58], the Emax entry is “+++ (Emax>200 and ≤300)”; the EC50 lay in the range of 500 to 3000 nM.
In the case of `COc1cc([C@@H]2CN(c3cc4nc(C)n(C)c(=O)c4c(-c4ccc(Cl)cc4F)n3)CCO2)ccn1` (single isomer, unassigned) [Example 83], the Emax result is “++++ (Emax>300)” and the EC50 is 50 to 500 nM.
For the compound `Cc1nc2cc(N3CCO[C@H](c4ccsc4)C3)nc(-c3ccc(Cl)cc3F)c2c(=O)n1C` [Example 240, (R)-5-(4-chloro-2-fluorophenyl)-2,3-dimethyl-7-(2-(thiophen-3-yl)morpholino)pyrido[4,3-d]pyrimidin-4(3H)-one], the Emax entry was “++++ (Emax>300)” and the half-maximal effective concentration (EC50) is 3000 to 100000 nM.
For the compound `Cc1nc2cc(N3C[C@@H](C)O[C@H](C4CC4)C3)nc(-c3ccc(Cl)cc3F)c2c(=O)n1C` (single isomer, unassigned) [Example 36], the Emax result is “+++ (Emax>200 and ≤300)”; the EC50 was 3000 to 100000 nM.
Consider `Cc1nc2cc(N3CCO[C@H](c4ccc(Cl)cc4)C3)nc(-c3ccc(Cl)cc3F)c2c(=O)n1C` (single isomer, unassigned) [Example 86], for which the Emax result is “++++ (Emax>300)” and the concentration for a half-maximal effect (EC50) lay in the range of 500 to 3000 nM.
Take `Cc1nc2cc(N3CCO[C@@H](c4cnn(CCF)c4)C3)nc(-c3ccc(Cl)cc3F)c2c(=O)n1C` [Example 128, 5-(4-chloro-2-fluorophenyl)-7-((2S)-2-(1-(2-fluoroethyl)-1H-pyrazol-4-yl)-4-morpholinyl)-2,3-dimethylpyrido[4,3-d]pyrimidin-4(3H)-one]: the Emax entry is “+++ (Emax>200 and ≤300)”; the 50% effective concentration (EC50) was less than 50 nM.
In the case of `Cc1nc2cc(N3CC[C@H](c4ccccc4)C3)nc(-c3ccc(Cl)cc3F)c2c(=O)n1C` [Example 206, (R)-5-(4-chloro-2-fluorophenyl)-2,3-dimethyl-7-(3-phenylpyrrolidin-1-yl)pyrido[4,3-d]pyrimidin-4(3H)-one], the Emax result was “++ (Emax>100 and ≤200)”; the EC50 is 3000 to 100000 nM.
With `CCCn1c(C)nc2cc(N3CCO[C@@H](c4cnn(C)c4)C3)nc(-c3ccc(Cl)cc3F)c2c1=O` [Example 152, 5-(4-chloro-2-fluorophenyl)-2-methyl-7-((2S)-2-(1-methyl-1H-pyrazol-4-yl)-4-morpholinyl)-3-propylpyrido[4,3-d]pyrimidin-4(3H)-one], the Emax entry was “+++ (Emax>200 and ≤300)”; the concentration giving a half-maximal response (EC50) was less than 50 nM.
For the compound `Cc1nc2cc(N3CCC[C@H](c4cnn(C)c4)C3)nc(-c3ccc(Cl)cc3F)c2c(=O)n1C` [Example 214, (R)-5-(4-chloro-2-fluorophenyl)-2,3-dimethyl-7-(3-(1-methyl-1H-pyrazol-4-yl)piperidin-1-yl)pyrido[4,3-d]pyrimidin-4(3H)-one], the Emax entry is “++++ (Emax>300)” and the EC50 is 50 to 500 nM.
As for `COc1cccc([C@@H]2CN(c3cc4nc(C)n(C)c(=O)c4c(-c4ccc(Cl)cc4F)n3)CCO2)c1` (single isomer, unassigned) [Example 81], the Emax entry is “+++ (Emax>200 and ≤300)”; the EC50 lay in the range of 3000 to 100000 nM.
Take `COc1cccc([C@@H]2CN(c3cc4nc(C)n(C)c(=O)c4c(-c4ccc(Cl)cc4F)n3)CCO2)c1` [Example 238, (R)-5-(4-chloro-2-fluorophenyl)-7-(2-(3-methoxyphenyl)morpholino)-2,3-dimethylpyrido[4,3-d]pyrimidin-4(3H)-one]: the Emax result is recorded as “++++ (Emax>300)” and the EC50 lay in the range of 50 to 500 nM.
On the same counts, the results for `Cc1nc2cc(N3CCO[C@H](c4cccc(C(F)(F)F)c4)C3)nc(-c3ccc(Cl)cc3F)c2c(=O)n1C` (single isomer, unassigned) [Example 92] are “++++ (Emax>300)” and 50 to 500 nM.
The like results for `Cc1nc2cc(N3CCC(F)(F)[C@H](N(C)C)C3)nc(-c3ccc(Cl)cc3F)c2c(=O)n1C` [Example 250, (R)-5-(4-chloro-2-fluorophenyl)-7-(3-(dimethylamino)-4,4-difluoropiperidin-1-yl)-2,3-dimethylpyrido[4,3-d]pyrimidin-4(3H)-one] were, in that order, “++++ (Emax>300)” and 3000 to 100000 nM.
As to `Cc1nc2cc(N3CCC(F)(F)[C@@H](c4cnn(C)c4)C3)nc(-c3ccc(Cl)cc3F)c2c(=O)n1C` (single isomer, unassigned) [Example 118], the Emax result was “+++ (Emax>200 and ≤300)”; the EC50 fell in the range of 50 to 500 nM.
As for `Cn1cc([C@H]2CN(c3cc4nc(C5CC5)n(C)c(=O)c4c(-c4ccc(Cl)cc4F)n3)CCO2)cn1` [Example 142, 5-(4-chloro-2-fluorophenyl)-2-cyclopropyl-3-methyl-7-((2S)-2-(1-methyl-1H-pyrazol-4-yl)-4-morpholinyl)pyrido[4,3-d]pyrimidin-4(3H)-one], the Emax entry was “++++ (Emax>300)” and the concentration giving a half-maximal response (EC50) is 50 to 500 nM.
The like results for `Cc1nc2cc(N3CCO[C@H](c4cccnc4)C3)nc(-c3ccc(Cl)cc3F)c2c(=O)n1C` (single isomer, unassigned) [Example 47] were, in that order, “++++ (Emax>300)” and 3000 to 100000 nM.
Turning to `Cc1nc2cc(N3CCO[C@H](c4cccc(OC(F)(F)F)c4)C3)nc(-c3ccc(Cl)cc3F)c2c(=O)n1C` (single isomer, unassigned) [Example 97], the Emax result is recorded as “++++ (Emax>300)” and the EC50 lay within 500 to 3000 nM.
The like results for `CCCn1c(C)nc2cc(N3CCO[C@H](C(F)F)C3)nc(-c3ccc(Cl)cc3F)c2c1=O` [Example 191, (S)-5-(4-chloro-2-fluorophenyl)-7-(2-(difluoromethyl)morpholino)-2-methyl-3-propylpyrido[4,3-d]pyrimidin-4(3H)-one] were, in that order, “++++ (Emax>300)” and 500 to 3000 nM.
`Cc1nc2cc(N3CC[C@@H](C(F)F)C3)nc(-c3ccc(Cl)cc3F)c2c(=O)n1C` [Example 258, (R)-5-(4-chloro-2-fluorophenyl)-7-(3-(difluoromethyl)pyrrolidin-1-yl)-2,3-dimethylpyrido[4,3-d]pyrimidin-4(3H)-one]: the Emax entry was “+++ (Emax>200 and ≤300)”; the EC50 was 3000 to 100000 nM.
On to `Cc1csc(C2CN(c3cc4nc(C)n(C)c(=O)c4c(-c4ccc(Cl)cc4F)n3)CCO2)n1` (stereo not shown) [Example 75, 5-(4-chloro-2-fluorophenyl)-2,3-dimethyl-7-(2-(4-methyl-1,3-thiazol-2-yl)-4-morpholinyl)pyrido[4,3-d]pyrimidin-4(3H)-one], for which the Emax entry is listed as “++++ (Emax>300)” and the EC50 is 50 to 500 nM.
`Cc1nc2cc(N3CCO[C@@H](c4cccc(OC(F)(F)F)c4)C3)nc(-c3ccc(Cl)cc3F)c2c(=O)n1C` (single isomer, unassigned) [Example 98]: the Emax entry is “+++ (Emax>200 and ≤300)”; the EC50 was in the range of 3000 to 100000 nM.
In the case of `Cc1nc2cc(N3CCO[C@H](c4ccncc4)C3)nc(-c3ccc(Cl)cc3F)c2c(=O)n1C` (single isomer, unassigned) [Example 48], the Emax entry is “+++ (Emax>200 and ≤300)”; the half-maximal effective concentration (EC50) lay in the range of 500 to 3000 nM.
Turning to `Cc1nc2cc(N3CCOC(c4ccnn4C)C3)nc(-c3ccc(Cl)cc3F)c2c(=O)n1C` (stereo not shown) [Example 52, 5-(4-chloro-2-fluorophenyl)-2,3-dimethyl-7-(2-(1-methyl-1H-pyrazol-5-yl)-4-morpholinyl)pyrido[4,3-d]pyrimidin-4(3H)-one], the Emax entry is “++++ (Emax>300)” and the EC50 is 500 to 3000 nM.
Turning to `Cc1nc2cc(N3CCOC(c4cncnc4)C3)nc(-c3ccc(Cl)cc3F)c2c(=O)n1C` (stereo not shown) [Example 51, 5-(4-chloro-2-fluorophenyl)-2,3-dimethyl-7-(2-(5-pyrimidinyl)-4-morpholinyl)pyrido[4,3-d]pyrimidin-4(3H)-one], the Emax entry is “+++ (Emax>200 and ≤300)”; the EC50 is 50 to 500 nM.
Take `Cc1nc2cc(N3C[C@@H](C)O[C@@H](c4ccsc4)C3)nc(-c3ccc(Cl)cc3F)c2c(=O)n1C` (single isomer, unassigned) [Example 73]: the Emax entry was “+++ (Emax>200 and ≤300)”; the EC50 fell in the range of 3000 to 100000 nM.
`Cc1nc2cc(N3CCO[C@@H](c4cccc(C(F)(F)F)c4)C3)nc(-c3ccc(Cl)cc3F)c2c(=O)n1C` (single isomer, unassigned) [Example 91]: the Emax result was “++ (Emax>100 and ≤200)”; the EC50 was 500 to 3000 nM.
On to `COc1cccc([C@H]2CN(c3cc4nc(C)n(C)c(=O)c4c(-c4ccc(Cl)cc4F)n3)CCO2)c1` (single isomer, unassigned) [Example 80], for which the Emax entry is on record as “++++ (Emax>300)” and the EC50 was in the range of 50 to 500 nM.
